Two compounds from US20260042764A1, “COMPOSITIONS AND METHODS FOR INHIBITION OF KRAS” (TheRas, Inc., priority 2022, published 2026) can be followed below.

For this assay, the system named is HCT116 cells (KRAS G13D). As to the kind of experiment: 3D Cell viability assay in HCT116 cells (Biological Example 6). Particulars: Homo sapiens, HCT-116; HCT116 (KRAS G13D) spheroids, 72 hours. It is filed as cell-based. An outline of the steps: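 Luminescent ATP read-out (CellTiter-Glo 3D) after 72 h compound exposure gives viability of preformed spheroids. Cells were seeded at 1000 per well in low-attachment plates and left 48 h to aggregate before dosing with nine three-fold concentrations at 0.25% DMSO.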

Structures are written as SMILES.

The IC50 is the midpoint of a concentration-inhibition curve. `CCN(c1nc(OC[C@@]23CCCN2C[C@H](F)C3)nc2c(F)c(-c3ccc(F)c4sc(N)c(C#N)c34)c(C(F)(F)F)cc12)[C@H]1CCS(=O)(=O)C1` (atropisomer, axis not shown) [Compound 492]: the IC50 was 100 to 1000 nM.
The same measure for `CCN(c1nc(OC[C@@]23CCCN2C[C@H](F)C3)nc2c(F)c(-c3ccc(F)c4sc(N)c(C#N)c34)c(C(F)(F)F)cc12)[C@H]1CCN(C(=O)OC)C1` (atropisomer, axis not shown) [Compound 541, methyl(3S)-3-[[7-(2-amino-3-cyano-7-fluoro-benzothiophen-4-yl)-8-fluoro-2-[[(2R,8S)-2-fluoro-1,2,3,5,6,7-hexahydropyrrolizin-8-yl]methoxy]-6-(trifluoromethyl)quinazolin-4-yl]-ethyl-amino]pyrrolidine-1-carboxylate]: 100 to 1000 nM.
